Experimental data taken from publication PMC4900628, “Critical Evaluation of P2X7 Receptor Antagonists in Selected Seizure Models” (PLoS ONE, 2016).
Where a name gives a salt, the structure may show the parent alone.

Experiments:
mouse P2X7R = target: T1, mouse P2X7R (Mus musculus, UniProt Q9Z1M0); assay: fluorometric Ca2+ assay (ATP-induced [Ca2+]i response) in HEKmP2X7 cells; type: cell-based; conditions: fluo-4, 1 mM ATP, read-out: Potency IC50 ± SEM, Mouse P2X7R
T1 construct: expressed in transfected cells
T1 sequence (Q9Z1M0 1-595): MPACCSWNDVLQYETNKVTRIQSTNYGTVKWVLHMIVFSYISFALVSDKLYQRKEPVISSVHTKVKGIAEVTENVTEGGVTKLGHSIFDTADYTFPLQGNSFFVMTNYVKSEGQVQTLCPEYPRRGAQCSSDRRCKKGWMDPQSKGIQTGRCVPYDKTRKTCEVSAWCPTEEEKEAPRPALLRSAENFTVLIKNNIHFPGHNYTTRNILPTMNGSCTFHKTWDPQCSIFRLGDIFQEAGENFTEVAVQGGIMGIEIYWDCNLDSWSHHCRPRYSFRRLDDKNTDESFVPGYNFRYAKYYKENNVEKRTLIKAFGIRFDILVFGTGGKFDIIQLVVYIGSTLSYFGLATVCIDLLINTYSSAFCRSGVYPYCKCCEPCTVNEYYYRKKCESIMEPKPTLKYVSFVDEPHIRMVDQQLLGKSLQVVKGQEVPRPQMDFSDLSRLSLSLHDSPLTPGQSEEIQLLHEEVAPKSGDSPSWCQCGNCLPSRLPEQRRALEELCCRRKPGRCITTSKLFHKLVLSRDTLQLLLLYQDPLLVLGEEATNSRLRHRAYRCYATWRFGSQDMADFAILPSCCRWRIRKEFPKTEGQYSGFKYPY
Procedure: (§1) Cells were grown in a humidified incubator at 37°C in an atmosphere supplemented with 5% CO2. […] HEK293mP2X7 were cultured in DMEM under similar conditions as described above, but containing 100 μg/ml zeocin (Invitrogen). […] Expression of the transgene was induced by supplementing the medium with 1 μg/ml tetracycline (Sigma-Aldrich, Taufkirchen, Germany) 24 h prior to the experiments. All fluorometric Ca^2+ assays in cell suspensions were performed in 384-microwell plates (Corning, No. 3655, Lowell, MA, USA) with a fluorescence-imaging microplate reader (POLARstar Omega, BMG Labtech, Offenburg, Germany) (for details, see [61, 68]). […] Microwell plates were repetitively scanned every 16 s in the fast scanning mode of the device. […] Data were normalized to the baseline values before ATP application (F/F0). […] ATP-solution was freshly prepared in Mg^2+-free HBS solution and adjusted to pH 7.4. Aliquots of stock solutions were stored at -20°C and freshly diluted with the appropriate HBS solution. […] Results are expressed as mean ± SEM. […] In the PTZ-T, the number of animals in the group with clonic seizures and the latency time were analysed using Fisher's exact probability test and the Mann-Whitney rank sum test, respectively. For multiple comparisons of the latency time a one-way ANOVA with the Holm-Sidak post hoc test was used. The influence of AFC on the plasma and brain concentrations of the antiepileptic drugs was statistical compared using the same procedure. In the PTZ-kindling model, the mean seizure stage within a group was calculated in relation to the number of PTZ-injections. Statistical comparison between vehicle- and compound-treated groups in this model was performed with two-way repeated measures ANOVA, followed by the Holm-Sidak post hoc test. […] In fully kindled rats, the calculated mean seizure stage within a group after vehicle- and compound-treatment were compared using a paired t-test. P < 0.05 was the accepted minimum level of significance.

human P2X7R = target: T2, human P2X7R (Homo sapiens, UniProt Q99572); assay: fluorometric Ca2+ assay (ATP-induced [Ca2+]i response) in HEKhP2X7 cells; type: cell-based; conditions: fluo-4, 1 mM ATP, read-out: Potency IC50 ± SEM, Human P2X7R
T2 construct: expressed in transfected cells
T2 sequence (Q99572 1-595): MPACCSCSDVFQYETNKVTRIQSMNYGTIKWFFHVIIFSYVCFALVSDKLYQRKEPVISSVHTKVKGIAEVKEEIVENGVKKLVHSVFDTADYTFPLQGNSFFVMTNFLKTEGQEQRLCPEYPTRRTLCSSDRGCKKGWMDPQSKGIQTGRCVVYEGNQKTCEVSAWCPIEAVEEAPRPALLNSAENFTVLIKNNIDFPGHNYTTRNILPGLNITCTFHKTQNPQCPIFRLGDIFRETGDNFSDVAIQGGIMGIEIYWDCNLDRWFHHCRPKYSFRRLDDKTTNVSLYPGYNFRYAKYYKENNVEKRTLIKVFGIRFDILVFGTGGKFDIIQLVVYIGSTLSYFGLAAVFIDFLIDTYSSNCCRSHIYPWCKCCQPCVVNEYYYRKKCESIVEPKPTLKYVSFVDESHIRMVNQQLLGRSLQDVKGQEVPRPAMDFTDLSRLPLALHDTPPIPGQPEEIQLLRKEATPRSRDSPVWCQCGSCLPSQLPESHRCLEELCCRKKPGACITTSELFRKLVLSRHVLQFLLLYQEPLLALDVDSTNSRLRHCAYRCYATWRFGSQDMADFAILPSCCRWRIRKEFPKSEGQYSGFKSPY
Procedure: as §1

rat P2X7R = target: T3, rat P2X7R (Rattus norvegicus, UniProt Q64663); assay: fluorometric Ca2+ assay (ATP-induced [Ca2+]i response) in HEKrP2X7 cells; type: cell-based; conditions: HEKrP2X7 cells, fluo-4, 1 mM ATP; read-out: Potency IC50 ± SEM, Rat P2X7R
T3 construct: expressed in transfected cells; host or cells: HEK293 Flp-In T-REx (HEKrP2X7), tetracycline-induced
T3 sequence (Q64663 1-595): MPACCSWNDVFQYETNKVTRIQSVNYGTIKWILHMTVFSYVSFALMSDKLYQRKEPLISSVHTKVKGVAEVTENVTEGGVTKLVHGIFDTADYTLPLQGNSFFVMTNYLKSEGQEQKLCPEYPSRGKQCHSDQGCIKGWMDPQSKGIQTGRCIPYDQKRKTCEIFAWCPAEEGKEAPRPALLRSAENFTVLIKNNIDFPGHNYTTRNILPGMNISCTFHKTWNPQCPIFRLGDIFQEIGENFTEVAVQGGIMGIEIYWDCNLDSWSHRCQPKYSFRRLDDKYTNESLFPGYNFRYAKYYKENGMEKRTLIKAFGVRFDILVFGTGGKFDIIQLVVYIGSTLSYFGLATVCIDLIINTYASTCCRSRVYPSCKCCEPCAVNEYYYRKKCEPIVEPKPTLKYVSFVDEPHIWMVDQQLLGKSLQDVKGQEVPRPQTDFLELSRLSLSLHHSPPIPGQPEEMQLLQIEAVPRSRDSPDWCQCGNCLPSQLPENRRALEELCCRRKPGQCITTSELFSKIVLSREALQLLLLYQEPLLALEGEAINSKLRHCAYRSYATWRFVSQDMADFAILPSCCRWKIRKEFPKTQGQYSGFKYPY
Procedure: as §1

[1] = tested on: PTZ-induced seizures in fully PTZ-kindled rats; assay: PTZ-induced seizures in fully kindled rats; type: in vivo; conditions: fully kindled rats; 100 mg/kg i.p.; pre-drug (vehicle) value 4.0
Source text: Results were expressed as mean seizure stages of a tested group in which the seizure behaviour after vehicle treatment (vehicle seizure stage) and after compound treatment (compound seizure stage), examined 3-4 days later, was matched. For comparison, the effectiveness of two antiepileptic drugs (carbamazepine and valproate) was also investigated. […] Chemicals, Toronto, Canada) was slowly added. The pH was adjusted with 1N NaOH (similar amount of NaOH as HCl), all with continuous stirring. […] The drug solutions or suspensions were prepared immediately before use; all doses refer to the salts. Animals in the control group received equivalent volumes of the vehicle (in mice always 10 ml/kg, in rats 1 ml/kg [JNJ], 3 ml/kg [AFC] or 4 ml/kg [BBG, TIIAS], depending on the solubility of the different compounds). Doses and peak time effects were selected on the basis of effective doses from corresponding in vivo studies in the literature: BBG (e.g.), tanshinone IIA (e.g.) and from manufacturer's experimental data: AFC, JNJ (see, [80]). Data were analysed using SigmaPlot (vers. 12.0, Systat Software, Erkrath, Germany) and SPSS (IBM SPSS Statistics 20, […], Germany), respectively. Results are expressed as mean ± SEM. […] In the MES-T, the current intensity inducing tonic hindlimb extensions in 50% of the mice (CC50 values with confidence limits for 95% probability) and the statistical significance was calculated using Probit analysis (SPSS). […] In the PTZ-T, the number of animals in the group with clonic seizures and the latency time were analysed using Fisher's exact probability test and the Mann-Whitney rank sum test, respectively. For multiple comparisons of the latency time a one-way ANOVA with the Holm-Sidak post hoc test was used. The influence of AFC on the plasma and brain concentrations of the antiepileptic drugs was statistical compared using the same procedure. In the PTZ-kindling model, the mean seizure stage within a group was calculated in relation to the number of PTZ-injections. Statistical comparison between vehicle- and compound-treated groups in this model was performed with two-way repeated measures ANOVA, followed by the Holm-Sidak post hoc test. The mean number of PTZ-injections needed to produce the first generalized seizure (≥ stage 3 convulsions) in the vehicle- versus compound-treated groups was statistically compared using a Mann-Whitney rank sum test. In fully kindled rats, the calculated mean seizure stage within a group after vehicle- and compound-treatment were compared using a paired t-test. P < 0.05 was the accepted minimum level of significance.

| IC50 (mouse P2X7R) | IC50 (human P2X7R) | IC50 (rat P2X7R) | SMILES | mean seizure stage, post-drug [1] |
| --- | --- | --- | --- | --- |
| 280 ± 20 nM | 70 ± 9 nM | 220 ± 10 nM | Clc1cccc(-c2nnnn2Cc2cccnc2)c1Cl [A-438079, 3-[[5-(2,3-dichlorophenyl)-1H-tetrazol-1yl]methyl]pyridine hydrochloride hydrate] |  |
| 120 ± 5 nM |  | 20 ± 2 nM | O=C(CC12CC3CC(CC(C3)C1)C2)Nc1cccc2nc(NCCNCCO)ccc12 [AZ-10606120, N-[2-[[2-[(2-hydroxyethyl)amino]ethyl]amino]-5-quinolinyl]-2-tricyclo[3.3.1.13,7]dec-1-ylacetamide dihydrochloride] |  |
|  |  |  | CCCC(CCC)C(=O)O [Ca-valproate, Ca-valproate dihydrate] | 1.1 |
